Biological target: Inosine-5'-monophosphate dehydrogenase 2 (Homo sapiens, UniProt P12268)
Assay: Inhibition of human Inosine-5'-monophosphate dehydrogenase 2

Compound | IC50 [nM]
COc1cc(NC(=O)CC(=O)Nc2cccc(C)c2)ccc1-c1cnco1 | 440
COc1cc(NC(=O)C(=O)N(C)c2ccccc2)ccc1-c1cnco1 | > 10000
COc1cc(NC(=O)C(=O)NNc2ccccc2)ccc1-c1cnco1 | > 10000
CC(C)(C)NC(=O)C(=O)Nc1ccc(-c2cnco2)c(Cl)c1 | 55
CC(C)(C)NC(=O)C(=O)Nc1ccc(-c2cnco2)c(Br)c1 | 50
COc1cc(NC(=O)CC(=O)Nc2ccccc2)ccc1-c1cnco1 | 400
COc1cc(NC(=O)C(=O)Nc2cccc(CNC(=O)O[C@@H]3CCOC3)c2)ccc1-c1cnco1 | 30
COc1cc(NC(=O)C(=O)NC2(CO)CCCC2)ccc1-c1cnco1 | 18
COc1cc(NC(=O)C(=O)NC(C)(C)C)ccc1-c1cnco1 | 10

Other lines, results leading:

IC50 [nM] | Compound
74 | COC(=O)C(C)(C)NC(=O)C(=O)Nc1ccc(-c2cnco2)c(OC)c1
47 | COc1cc(NC(=O)C(=O)NC(C)(C)CN(C)C)ccc1-c1cnco1
> 10000 | COc1cc(NC(=O)C(=O)N(C)C(C)(C)C)ccc1-c1cnco1
> 10000 | COc1cc(NC(=O)C(=O)NC(C)(C)C(=O)O)ccc1-c1cnco1
> 10000 | CC(C)(C)NC(=O)C(=O)Nc1ccc(-c2cnco2)cc1
> 10000 | COc1cc(NC(=O)C(=O)NCc2ccccc2)ccc1-c1cnco1
> 10000 | Cc1ncoc1-c1ccc(NC(=O)C(=O)NC(C)(C)C)cc1
> 10000 | COc1cc(NC(=O)C(=O)NC2CCCCC2)ccc1-c1cnco1
> 10000 | CCCNC(=O)C(=O)Nc1ccc(-c2cnco2)c(OC)c1
> 10000 | COc1cc(NC(=O)C(=O)NC(C)C)ccc1-c1cnco1
52 | COc1cc(NC(=O)C(=O)Nc2ccccc2)ccc1-c1cnco1
19 | COc1cc(NC(=O)C(=O)NC(C)(C)CO)ccc1-c1cnco1

— ChEMBL document CHEMBL1135307, “Novel diamide-based inhibitors of IMPDH” (Bioorg Med Chem Lett, 2002)
